19 compounds from ChEMBL document CHEMBL1141662, “Synthesis and antiproliferative activity of aryl- and heteroaryl-hydrazones derived from xanthone carbaldehydes” (Eur J Med Chem, 2008) can be followed below.

Assay [1] deals with MCF7. In words: Antiproliferative activity against human MCF7 cells after 72 hrs by MTT assay. The assay is classed as functional, cell-based. Particulars: MCF7, 72 h. (Formazan colour is commonly taken as a measure of viable cells.)
Assay [2] deals with MCF7. In words: Antiproliferative activity against human MCF7 cells assessed as cell viability at 1 uM after 24 hrs by MTT assay. Particulars: MCF7, 24 h, read-out: Activity. The class given is functional.
In assay [3] the test system is MCF7. In words: Ratio of IC50 for human […] cells after 24 hrs to IC50 for human MCF7 cells after 72 hrs by MTT assay. The assay is classed as functional.
Assay [4] relates to MCF7. In words: Antiproliferative activity against human MCF7 cells after 24 hrs by MTT assay. The settings on record: MCF7, 24 h. The assay is classed as functional, cell-based.
Assay [5] has as its system MCF7. In words: Antiproliferative activity against human MCF7 cells assessed as cell viability at 10 uM after 24 hrs by MTT assay. The settings on record: MCF7, 24 h, read-out: Activity. The class given is functional.
The nature of assay [6]: Antiproliferative activity against human KB 3.1 cells after 72 hrs by MTT assay. The class given is functional, cell-based. The settings on record: KB 3-1, 72 h.
A short description of assay [7]: Antiproliferative activity against human KB 3.1 cells after 24 hrs by MTT assay. The settings on record: KB 3-1, 24 h. The class given is functional, cell-based.
Assay [8] can be described thus: Ratio of IC50 for human KB 3.1 cells after 24 hrs to IC50 for human KB 3.1 cells after 72 hrs by MTT assay. The class given is functional.
The nature of assay [9]: Antiproliferative activity against human KB 3.1 cells assessed as cell viability at 10 uM after 24 hrs by MTT assay. The assay is classed as functional. The settings on record: KB 3-1, 24 h, read-out: Activity.
Assay [10] is described as follows: Antiproliferative activity against human KB 3.1 cells assessed as cell viability at 1 uM after 24 hrs by MTT assay. The assay is classed as functional. Particulars: KB 3-1, 24 h, read-out: Activity.

As usually defined, the IC50 is the concentration needed to halve the response being measured. Higher therefore signals a need for much substance. For `CC(=O)Oc1cc(OC(C)=O)c2c(=O)c3ccc(/C=N/NC4=NCCN4)cc3oc2c1`, the IC50 in assay [1] was 2.4 µM; in assay [4], 1.9 µM; in [6], 1.8 µM; in assay [7], 1.6 µM. In addition, the viability at 1 µM in assay [2] stood at 35%; in assay [10], 85%. Besides, the “Ratio IC50” value in [3] was determined as 0.8; in assay [8], 0.9. Also, the viability at 10 µM in [5] and in assay [9] was 13% each time.
Regarding `O=c1c2cc(/C=N/Nc3ccccc3)ccc2oc2cc(O)cc(O)c12`, the viability at 1 µM in assay [2] and in assay [10] was 100% throughout. The viability at 10 µM stood at 72% in [5] and 82% in assay [9].
Take `CC(=O)Oc1cc(OC(C)=O)c2c(=O)c3ccc(/C=N/Nc4ccccn4)cc3oc2c1`: the viability at 1 µM in [2] and in assay [10] was 100% each time. For the same compound, the results for the viability at 10 µM in [5] and in assay [9] were 100% and 87%, respectively.
In the case of `CC(=O)Oc1cc(OC(C)=O)c2c(=O)c3cc(/C=N/NC4=NCCN4)ccc3oc2c1`, the IC50 in assay [1] stood at 7 µM; in assay [4] it was 9.3 µM; in [6], 4.7 µM; in assay [7] it was 11.3 µM. Also, the viability at 1 µM in assay [2] was 64%; in assay [10] it was 100%. Moreover, the results for the “Ratio IC50” value in assay [3] and in assay [8] were 1.3 and 2.4, respectively. The viability at 10 µM in assay [5] and in assay [9] was 14% in each case.
With `O=c1c2cccc(/C=N\Nc3ccccn3)c2oc2cc(O)cc(O)c12`, the viability at 1 µM in assay [2] was determined as 86%; in assay [10], 96%. Besides, the viability at 10 µM in assay [5] turned out to be 12%; in [9], 3%.
For `CC(=O)Oc1cc(OC(C)=O)c2c(=O)c3cccc(/C=N\Nc4ccccn4)c3oc2c1` the same measures were 80%, 95%, 79% and 90%.
As to `O=c1c2cccc(/C=N\Nc3ccccc3)c2oc2cc(O)cc(O)c12`, the viability at 1 µM in assay [2] and in assay [10] was 100% each time. The viability at 10 µM in [5] stood at 100%; in [9], 96%.
In the case of `CC(=O)Oc1cc(OC(C)=O)c2c(=O)c3cccc(/C=N\Nc4ccccc4)c3oc2c1`, the viability at 1 µM in assay [2] and in assay [10] was 100% each time. The viability at 10 µM worked out at 100% in assay [5] and 82% in assay [9].
Consider `CC(=O)Oc1cc(OC(C)=O)c2c(=O)c3ccc(/C=N/Nc4ccccc4)cc3oc2c1`, for which the viability at 1 µM in assay [2] and in assay [10] was 100% throughout. Moreover, the viability at 10 µM in [5] and in assay [9] was 100% throughout.
Regarding `O=c1c2ccc(/C=N/NC3=NCCN3)cc2oc2cc(O)cc(O)c12`, the results for the viability at 1 µM in assay [2] and in assay [10] were 73% and 93%, respectively. Also, the viability at 10 µM amounted to 70% in assay [5] and 80% in assay [9].
For `CC(=O)Oc1cc(OC(C)=O)c2c(=O)c3cc(/C=N/Nc4ccccn4)ccc3oc2c1` the same measures were 85%, 98%, 70% and 60%.
Take `COc1cccc2c1C(=O)c1c(O)c3c(c(O)c1C2=O)C[C@@](O)(C(=O)CO)C[C@@H]3O[C@H]1C[C@H](N)[C@H](O)[C@H](C)O1` [DOXORUBICIN]: the values for the IC50 in [6] and in assay [7] were 0.0004 µM and 0.01 µM, respectively.
On to `O=c1c2ccc(/C=N/Nc3ccccn3)cc2oc2cc(O)cc(O)c12`, for which the viability at 1 µM was 100% in assay [2] and 77% in [10]. Besides, the viability at 10 µM in assay [5] is 3%; in [9], 2%.
For `O=c1c2cc(/C=N/Nc3ccccn3)ccc2oc2cc(O)cc(O)c12` the same measures were 58%, 95%, 41% and 90%.
For `CC(=O)Oc1cc(OC(C)=O)c2c(=O)c3cc(/C=N/Nc4ccccc4)ccc3oc2c1` the same measures were 100%, 100%, 100% and 100%.
For `O=c1c2ccc(/C=N/Nc3ccccc3)cc2oc2cc(O)cc(O)c12` the same measures were 100%, 100%, 100% and 61%.
With `O=c1c2cccc(/C=N\NC3=NCCN3)c2oc2cc(O)cc(O)c12`, the viability at 1 µM in [2] came to 97%; in [10] it was 90%. The viability at 10 µM was 82% in assay [5] and 75% in assay [9].
For `O=c1c2cc(/C=N/NC3=NCCN3)ccc2oc2cc(O)cc(O)c12` the same measures were 90%, 99%, 64% and 92%.
In the case of `CC(=O)Oc1cc(OC(C)=O)c2c(=O)c3cccc(/C=N\NC4=NCCN4)c3oc2c1`, the IC50 in [1] was 5.6 µM; in assay [4], 5.1 µM; in assay [6] it was 6.5 µM; in [7], 6.8 µM. The viability at 1 µM in assay [2] amounted to 80%; in [10], 95%. Also, the “Ratio IC50” value in assay [3] is on record as 0.9; in assay [8], 1.05. In addition, the results for the viability at 10 µM in assay [5] and in assay [9] were 48% and 66%, respectively.
